In the assay the target is cloned h5-HT2A receptor (Homo sapiens, UniProt P28223). The assay can be described thus: 5-HT2A competitive radioligand binding assay. The conditions noted are these: ratio of H1 Ki to 5-HT2A Ki.

This note sets out measurements from paper PMC3252747 (Bioorganic & medicinal chemistry letters, 2009).

Sequence of cloned h5-HT2A receptor (P28223 whole entry): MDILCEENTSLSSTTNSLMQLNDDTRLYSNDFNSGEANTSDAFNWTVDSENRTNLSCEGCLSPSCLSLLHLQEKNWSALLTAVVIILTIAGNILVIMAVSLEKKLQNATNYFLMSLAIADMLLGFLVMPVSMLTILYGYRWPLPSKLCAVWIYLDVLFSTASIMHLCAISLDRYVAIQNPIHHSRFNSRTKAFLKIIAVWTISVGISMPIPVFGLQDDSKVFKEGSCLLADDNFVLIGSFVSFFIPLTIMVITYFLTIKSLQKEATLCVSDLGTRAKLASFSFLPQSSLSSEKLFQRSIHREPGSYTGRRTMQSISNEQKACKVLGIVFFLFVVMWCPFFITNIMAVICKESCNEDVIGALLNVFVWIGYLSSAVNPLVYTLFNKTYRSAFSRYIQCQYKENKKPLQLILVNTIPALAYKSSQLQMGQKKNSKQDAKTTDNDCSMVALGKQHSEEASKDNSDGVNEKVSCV

Take `COc1ccc2c3c(ccc2c1)Cc1ccccc1C3CN` (stereo not shown) [Compound 2b, (7,12-dihydrotetraphene-3-methoxy-12-yl)methanamine]: the “selectivity for 5-HT2A over the H1 receptor” value worked out at 100 fold.
